Experiment [1] addresses Tyrosine-protein kinase JAK2 (Homo sapiens) (UniProt O60674). Put plainly: Inhibition of recombinant human GST-tagged JAK2 cytoplasmic domain (809 to […] residues) expressed in baculovirus expression system at 500 nM by Z-LYTE assay relative to control.
Experiment [2] has as its target Tyrosine-protein kinase Lck (Homo sapiens) (UniProt P06239). Put plainly: Inhibition of recombinant full-length human His-tagged LCK expressed in baculovirus expression system at 500 nM by Z-LYTE assay relative to control.
The target of experiment [3] is Serine/threonine-protein kinase mTOR (Homo sapiens) (UniProt P42345). The experiment can be described thus: Inhibition of recombinant human GST-tagged mTOR cytoplasmic domain (1360 to 2549 residues) expressed in baculovirus expression system at 500 nM by Z-LYTE assay relative to control.
In experiment [4] the target is Mitogen-activated protein kinase 14 (Homo sapiens) (UniProt Q16539). The experiment can be described thus: Inhibition of recombinant human full length His-tagged p38-alpha expressed in baculovirus expression system at 500 nM by Z-LYTE assay relative to control.
For experiment [5], the target named is Receptor-type tyrosine-protein kinase FLT3 (Homo sapiens) (UniProt P36888). The experiment can be described thus: Inhibition of recombinant human His-tagged FLT3 cytoplasmic domain (564 to 958 residues) expressed in baculovirus expression system at 500 nM by Z-LYTE assay relative to control.
Experiment [6] concerns the target Hepatocyte growth factor receptor (Homo sapiens) (UniProt P08581). The experiment can be described thus: Inhibition of recombinant truncated human His-tagged MET expressed in mammalian expression system at 500 nM by Z-LYTE assay relative to control.
In experiment [7] the target is Platelet-derived growth factor receptor alpha (Homo sapiens) (UniProt P16234). Put plainly: Inhibition of recombinant human GST-tagged PDGFRalpha cytoplasmic domain (550 to 1089 residues) expressed in baculovirus expression system at 500 nM by Z-LYTE assay relative to control.
The target in experiment [8] is Protein kinase C beta type (Homo sapiens) (UniProt P05771). The experiment can be described thus: Inhibition of recombinant full length human GST-tagged PKCbeta-1 expressed in insect cells at 500 nM by Z-LYTE assay relative to control.
Experiment [9] concerns the target PI3K p110 beta/p85 alpha (Homo sapiens) (UniProt P27986+P42338). Put plainly: Inhibition of PI3K p110beta/p85alpha (unknown origin) at 500 nM by Z-LYTE assay relative to control. In kind it is protein-complex assay.
Experiment [10] addresses T1, Calcium/calmodulin-dependent protein kinase type IV (Homo sapiens) (UniProt Q16566).
T1 sequence (whole entry): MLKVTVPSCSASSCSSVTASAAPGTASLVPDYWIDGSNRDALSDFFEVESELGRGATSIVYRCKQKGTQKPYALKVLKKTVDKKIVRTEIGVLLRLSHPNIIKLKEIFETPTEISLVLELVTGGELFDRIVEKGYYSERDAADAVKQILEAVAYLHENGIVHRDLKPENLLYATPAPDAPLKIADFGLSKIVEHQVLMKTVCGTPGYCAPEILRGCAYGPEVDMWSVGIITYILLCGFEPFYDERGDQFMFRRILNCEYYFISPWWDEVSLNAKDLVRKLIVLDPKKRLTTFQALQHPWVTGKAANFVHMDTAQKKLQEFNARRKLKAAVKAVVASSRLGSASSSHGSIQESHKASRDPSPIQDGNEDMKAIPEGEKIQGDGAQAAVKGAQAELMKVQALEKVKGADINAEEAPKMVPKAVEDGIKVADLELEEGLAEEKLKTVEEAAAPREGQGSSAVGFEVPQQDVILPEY
Put plainly: Inhibition of recombinant human full length GST-tagged CAMK4 expressed in Escherichia coli at 500 nM by Z-LYTE assay relative to control.

In experiment [11] the target is Proto-oncogene tyrosine-protein kinase receptor Ret (Homo sapiens) (UniProt P07949). The experiment can be described thus: Inhibition of recombinant human GST-tagged RET cytoplasmic domain expressed in baculovirus expression system at 500 nM by Z-LYTE assay relative to control.
The target in experiment [12] is Tyrosine-protein kinase Yes (Homo sapiens) (UniProt P07947). Put plainly: Inhibition of human full length GST-tagged YES1 expressed in baculovirus expression system at 500 nM by Z-LYTE assay relative to control.
For experiment [13], the target named is Mitogen-activated protein kinase 8 (Homo sapiens) (UniProt P45983). Put plainly: Inhibition of recombinant human full length His-tagged JNK1 expressed in baculovirus expression system at 500 nM by Z-LYTE assay relative to control.
A further experiment concerns PBMC. Put plainly: Cytotoxicity against human PBMC assessed as induction of cell death by cell Titer-Glo assay. The format is cell-based.
In experiment [14] the target is Tyrosine-protein kinase ABL1 (Homo sapiens) (UniProt P00519). The experiment can be described thus: Inhibition of recombinant human full length His-tagged ABL1 expressed in baculovirus expression system at 500 nM by Z-LYTE assay relative to control.
Experiment [15] concerns the target T2, Inhibitor of nuclear factor kappa-B kinase subunit beta (Homo sapiens) (UniProt O14920).
T2 sequence (whole entry): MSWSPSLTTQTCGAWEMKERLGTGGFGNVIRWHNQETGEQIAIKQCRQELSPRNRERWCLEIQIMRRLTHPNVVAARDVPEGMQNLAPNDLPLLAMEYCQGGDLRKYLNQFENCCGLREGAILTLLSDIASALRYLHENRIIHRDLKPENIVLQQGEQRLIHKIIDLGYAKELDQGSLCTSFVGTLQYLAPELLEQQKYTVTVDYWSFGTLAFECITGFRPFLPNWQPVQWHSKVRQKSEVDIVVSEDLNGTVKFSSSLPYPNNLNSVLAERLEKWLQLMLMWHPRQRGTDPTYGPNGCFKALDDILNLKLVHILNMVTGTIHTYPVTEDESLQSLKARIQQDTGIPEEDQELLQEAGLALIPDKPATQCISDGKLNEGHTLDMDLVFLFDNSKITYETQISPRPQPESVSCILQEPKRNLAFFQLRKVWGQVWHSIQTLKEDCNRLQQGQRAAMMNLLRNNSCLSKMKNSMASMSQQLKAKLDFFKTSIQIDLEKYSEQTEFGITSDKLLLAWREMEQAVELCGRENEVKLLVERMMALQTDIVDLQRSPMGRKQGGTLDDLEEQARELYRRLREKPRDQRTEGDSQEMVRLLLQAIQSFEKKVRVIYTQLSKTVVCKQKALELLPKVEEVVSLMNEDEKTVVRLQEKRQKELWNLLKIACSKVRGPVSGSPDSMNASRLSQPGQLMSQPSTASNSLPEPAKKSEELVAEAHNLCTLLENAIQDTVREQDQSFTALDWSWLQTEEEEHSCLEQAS
The experiment can be described thus: Inhibition of recombinant full-length human GST-tagged IKKbeta expressed in baculovirus expression system at 500 nM by Z-LYTE assay relative to control.

Experiment [16] deals with Proto-oncogene tyrosine-protein kinase Src (Homo sapiens) (UniProt P12931). The experiment can be described thus: Inhibition of human full length Src expressed in baculovirus expression system at 500 nM by Z-LYTE assay relative to control.

Our source for the inhibition and IC50 values is ChEMBL document CHEMBL4152312, “Identification of fused pyrimidines as interleukin 17 secretion inhibitors” (Eur J Med Chem, 2018).

Sequence of Receptor-type tyrosine-protein kinase FLT3 (Homo sapiens) (P36888 whole entry, the tested form may be a part): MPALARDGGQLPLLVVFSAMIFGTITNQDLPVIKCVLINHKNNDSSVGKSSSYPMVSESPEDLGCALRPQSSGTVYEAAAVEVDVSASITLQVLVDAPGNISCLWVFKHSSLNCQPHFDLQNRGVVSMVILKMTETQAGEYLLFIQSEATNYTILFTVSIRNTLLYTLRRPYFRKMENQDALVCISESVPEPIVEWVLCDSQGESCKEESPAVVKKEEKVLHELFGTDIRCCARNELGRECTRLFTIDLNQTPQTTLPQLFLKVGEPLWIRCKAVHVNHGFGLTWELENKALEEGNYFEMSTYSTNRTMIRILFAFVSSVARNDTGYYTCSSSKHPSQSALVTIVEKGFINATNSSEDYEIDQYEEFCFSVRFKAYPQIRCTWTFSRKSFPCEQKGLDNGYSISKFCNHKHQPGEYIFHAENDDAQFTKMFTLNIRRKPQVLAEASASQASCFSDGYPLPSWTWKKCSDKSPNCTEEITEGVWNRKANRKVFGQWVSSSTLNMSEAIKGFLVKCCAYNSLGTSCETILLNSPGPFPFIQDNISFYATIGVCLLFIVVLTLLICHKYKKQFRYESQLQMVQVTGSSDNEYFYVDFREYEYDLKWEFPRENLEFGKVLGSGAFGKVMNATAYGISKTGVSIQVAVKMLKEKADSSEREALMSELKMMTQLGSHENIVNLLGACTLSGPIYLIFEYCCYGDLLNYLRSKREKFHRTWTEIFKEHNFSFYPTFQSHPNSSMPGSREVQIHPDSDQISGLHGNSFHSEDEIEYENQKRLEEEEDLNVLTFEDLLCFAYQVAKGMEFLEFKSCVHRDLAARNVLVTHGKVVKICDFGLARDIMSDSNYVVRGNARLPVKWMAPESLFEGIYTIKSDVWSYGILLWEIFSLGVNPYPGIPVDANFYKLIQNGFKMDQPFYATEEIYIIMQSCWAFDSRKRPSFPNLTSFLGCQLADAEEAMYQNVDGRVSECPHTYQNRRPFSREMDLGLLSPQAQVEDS
Sequence of Platelet-derived growth factor receptor alpha (Homo sapiens) (P16234 whole entry, the tested form may be a part): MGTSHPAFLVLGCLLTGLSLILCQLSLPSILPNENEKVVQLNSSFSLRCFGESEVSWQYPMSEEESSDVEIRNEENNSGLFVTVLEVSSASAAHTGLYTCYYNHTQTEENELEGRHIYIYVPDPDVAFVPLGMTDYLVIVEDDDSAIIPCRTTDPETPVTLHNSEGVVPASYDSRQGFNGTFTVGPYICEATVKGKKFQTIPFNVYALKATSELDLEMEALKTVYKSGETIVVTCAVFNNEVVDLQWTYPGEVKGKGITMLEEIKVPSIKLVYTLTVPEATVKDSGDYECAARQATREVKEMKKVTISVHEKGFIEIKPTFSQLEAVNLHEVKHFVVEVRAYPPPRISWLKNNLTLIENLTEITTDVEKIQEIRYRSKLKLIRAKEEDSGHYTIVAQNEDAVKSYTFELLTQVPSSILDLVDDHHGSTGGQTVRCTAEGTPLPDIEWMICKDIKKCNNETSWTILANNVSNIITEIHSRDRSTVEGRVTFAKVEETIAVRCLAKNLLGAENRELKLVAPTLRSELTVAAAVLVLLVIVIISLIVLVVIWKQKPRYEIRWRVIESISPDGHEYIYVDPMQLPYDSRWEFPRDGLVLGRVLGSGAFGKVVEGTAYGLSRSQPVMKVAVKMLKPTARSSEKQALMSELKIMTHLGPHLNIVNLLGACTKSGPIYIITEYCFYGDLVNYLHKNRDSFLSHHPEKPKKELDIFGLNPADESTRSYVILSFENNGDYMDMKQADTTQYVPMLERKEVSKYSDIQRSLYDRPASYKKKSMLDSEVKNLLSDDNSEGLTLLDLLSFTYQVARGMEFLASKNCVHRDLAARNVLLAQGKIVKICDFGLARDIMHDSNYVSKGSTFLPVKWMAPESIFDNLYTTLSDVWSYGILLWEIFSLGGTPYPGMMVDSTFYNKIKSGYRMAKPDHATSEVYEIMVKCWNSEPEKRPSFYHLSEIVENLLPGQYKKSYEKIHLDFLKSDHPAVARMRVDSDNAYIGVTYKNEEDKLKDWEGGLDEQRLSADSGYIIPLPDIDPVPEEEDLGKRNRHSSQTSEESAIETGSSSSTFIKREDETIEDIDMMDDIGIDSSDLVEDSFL
Sequence of Protein kinase C beta type (Homo sapiens) (P05771 2-671 limits assumed): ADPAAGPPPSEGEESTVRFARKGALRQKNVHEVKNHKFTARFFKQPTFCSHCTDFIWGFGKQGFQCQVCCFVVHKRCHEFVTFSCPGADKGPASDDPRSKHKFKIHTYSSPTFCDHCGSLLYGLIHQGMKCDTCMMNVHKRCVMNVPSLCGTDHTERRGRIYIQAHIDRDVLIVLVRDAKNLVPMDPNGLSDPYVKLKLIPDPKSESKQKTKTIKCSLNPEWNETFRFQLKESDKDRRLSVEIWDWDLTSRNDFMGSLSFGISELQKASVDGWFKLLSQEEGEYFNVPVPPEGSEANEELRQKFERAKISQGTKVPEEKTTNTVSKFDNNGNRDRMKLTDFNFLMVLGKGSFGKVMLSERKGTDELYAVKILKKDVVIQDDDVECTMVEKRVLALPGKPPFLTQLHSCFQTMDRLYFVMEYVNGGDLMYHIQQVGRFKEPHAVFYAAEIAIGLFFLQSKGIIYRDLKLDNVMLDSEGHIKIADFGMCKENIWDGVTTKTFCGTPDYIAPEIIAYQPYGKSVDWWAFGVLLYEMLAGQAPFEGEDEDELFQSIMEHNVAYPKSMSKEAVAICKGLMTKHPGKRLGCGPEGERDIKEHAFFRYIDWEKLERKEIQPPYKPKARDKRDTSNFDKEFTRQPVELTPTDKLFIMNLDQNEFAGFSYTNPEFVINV
Sequence of PI3K p110 beta/p85 alpha (Homo sapiens) (P27986 2-724 limits assumed): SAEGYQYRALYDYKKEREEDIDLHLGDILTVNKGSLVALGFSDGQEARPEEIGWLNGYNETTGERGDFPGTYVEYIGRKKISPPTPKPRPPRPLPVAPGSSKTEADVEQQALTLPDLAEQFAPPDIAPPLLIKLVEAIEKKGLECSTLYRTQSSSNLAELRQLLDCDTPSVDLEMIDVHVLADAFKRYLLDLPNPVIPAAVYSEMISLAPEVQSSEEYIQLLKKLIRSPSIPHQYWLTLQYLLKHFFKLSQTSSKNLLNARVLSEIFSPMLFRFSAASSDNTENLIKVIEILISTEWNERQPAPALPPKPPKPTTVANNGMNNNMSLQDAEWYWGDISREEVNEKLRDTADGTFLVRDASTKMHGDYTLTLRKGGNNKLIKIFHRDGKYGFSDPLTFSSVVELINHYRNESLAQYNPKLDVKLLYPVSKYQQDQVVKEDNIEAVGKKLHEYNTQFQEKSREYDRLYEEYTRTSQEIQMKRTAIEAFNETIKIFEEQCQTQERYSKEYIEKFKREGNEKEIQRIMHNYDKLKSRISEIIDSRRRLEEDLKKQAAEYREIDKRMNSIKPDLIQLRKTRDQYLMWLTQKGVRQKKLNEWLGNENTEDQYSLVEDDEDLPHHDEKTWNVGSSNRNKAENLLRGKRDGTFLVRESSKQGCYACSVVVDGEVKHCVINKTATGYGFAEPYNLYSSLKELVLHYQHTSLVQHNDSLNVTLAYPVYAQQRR
Sequence of PI3K p110 beta/p85 alpha (Homo sapiens) (P42338 whole entry partner): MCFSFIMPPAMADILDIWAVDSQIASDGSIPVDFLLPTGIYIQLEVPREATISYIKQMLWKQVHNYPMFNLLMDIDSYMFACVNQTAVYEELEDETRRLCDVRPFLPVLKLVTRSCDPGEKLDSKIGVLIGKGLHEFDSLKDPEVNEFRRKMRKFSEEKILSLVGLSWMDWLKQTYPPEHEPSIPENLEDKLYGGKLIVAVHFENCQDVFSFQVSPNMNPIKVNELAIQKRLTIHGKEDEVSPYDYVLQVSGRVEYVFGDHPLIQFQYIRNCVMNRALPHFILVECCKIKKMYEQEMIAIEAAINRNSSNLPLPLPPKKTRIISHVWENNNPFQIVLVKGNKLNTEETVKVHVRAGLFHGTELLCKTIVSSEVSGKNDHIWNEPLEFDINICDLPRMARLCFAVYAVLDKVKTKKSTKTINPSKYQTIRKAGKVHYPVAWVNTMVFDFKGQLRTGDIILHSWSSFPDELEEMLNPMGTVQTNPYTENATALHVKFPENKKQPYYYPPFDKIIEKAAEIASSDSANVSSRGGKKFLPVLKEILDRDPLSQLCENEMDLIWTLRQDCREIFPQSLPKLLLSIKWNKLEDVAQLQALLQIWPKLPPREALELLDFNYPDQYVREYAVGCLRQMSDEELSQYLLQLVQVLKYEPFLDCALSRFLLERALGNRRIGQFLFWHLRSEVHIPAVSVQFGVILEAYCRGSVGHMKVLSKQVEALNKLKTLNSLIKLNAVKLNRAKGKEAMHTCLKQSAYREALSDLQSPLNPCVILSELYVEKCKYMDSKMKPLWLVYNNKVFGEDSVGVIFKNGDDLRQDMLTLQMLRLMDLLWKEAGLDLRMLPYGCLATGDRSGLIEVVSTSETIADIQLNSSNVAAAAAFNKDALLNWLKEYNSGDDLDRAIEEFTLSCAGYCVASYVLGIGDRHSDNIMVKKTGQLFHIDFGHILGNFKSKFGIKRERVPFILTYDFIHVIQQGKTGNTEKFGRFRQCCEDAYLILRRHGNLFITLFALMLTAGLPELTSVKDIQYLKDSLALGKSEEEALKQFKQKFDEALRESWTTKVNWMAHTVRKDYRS
Sequence of Tyrosine-protein kinase Yes (Homo sapiens) (P07947 2-543 limits assumed): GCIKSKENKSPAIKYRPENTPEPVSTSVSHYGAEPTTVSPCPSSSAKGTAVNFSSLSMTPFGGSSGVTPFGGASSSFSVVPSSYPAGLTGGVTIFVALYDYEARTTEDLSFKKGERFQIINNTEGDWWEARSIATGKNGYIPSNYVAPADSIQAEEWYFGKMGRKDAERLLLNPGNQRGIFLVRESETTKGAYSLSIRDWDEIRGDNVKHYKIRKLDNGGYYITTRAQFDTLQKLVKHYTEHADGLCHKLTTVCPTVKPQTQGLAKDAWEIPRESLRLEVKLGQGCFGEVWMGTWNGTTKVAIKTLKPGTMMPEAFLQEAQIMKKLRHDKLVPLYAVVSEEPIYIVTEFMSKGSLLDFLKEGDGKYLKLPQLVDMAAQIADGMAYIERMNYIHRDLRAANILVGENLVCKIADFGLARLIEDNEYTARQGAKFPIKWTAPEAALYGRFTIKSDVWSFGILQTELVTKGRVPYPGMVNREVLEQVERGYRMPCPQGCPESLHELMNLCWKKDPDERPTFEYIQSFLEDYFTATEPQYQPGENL

Consider `OC[C@@H](Nc1ncnc2sc(-c3ccc(O)cc3)cc12)c1ccccc1`, for which the inhibition in [1] is 1%; in experiment [2], 3%; in [3], 7%; in experiment [4] it was 8%; in experiment [5], 16%; in experiment [6] it was 1%. Also, the inhibition in experiment [7] was 0%; in experiment [8], -9%; in experiment [9], 1%; in experiment [10], -9%; in [11] it was 12%; in experiment [12] it was 13%. For the same compound, the inhibition in experiment [13] is 19%; in experiment [14], 8%; in experiment [15], 12%. In addition, in the experiment with PBMC, the IC50 was > 30 µM.
Turning to `CCC(=O)Nc1ccc(-c2c[nH]c3ncnc(N[C@H](C)c4ccccc4)c23)cc1`, the inhibition in experiment [1] amounted to 13%; in experiment [2], 19%; in experiment [3] it was 11%; in [4], 3%; in experiment [5], 42%; in experiment [6], 6%. The inhibition turned out to be 8% in experiment [7]; 14% in [8]; 11% in experiment [9]; 5% in [10]; 23% in experiment [11]; 16% in experiment [16]. The inhibition in experiment [12] is 9%; in experiment [13] it was 4%; in [14], 5%; in experiment [15], 14%. Moreover, the IC50 with PBMC was > 10 µM.
In the case of `CN(C)CCn1cc(-c2cccc(O)c2)c2c(N)ncnc21`, the inhibition in experiment [1] stood at 7%; in experiment [2] it was 32%; in [3], 14%; in experiment [4], 8%; in experiment [5], 38%; in experiment [6] it was 4%. In addition, the inhibition in [7] worked out at 18%; in experiment [8], 8%; in experiment [9], 12%; in [10], 2%; in [11], 93%; in experiment [16], 55%. Moreover, the inhibition turned out to be 65% in experiment [12], 3% in [13], 69% in experiment [14] and 7% in experiment [15]. For the same compound, the IC50 in the experiment on PBMC is > 10 µM.
On to `OCc1ccc(-c2cc3c(N[C@H](CO)c4ccccc4)ncnc3[nH]2)cc1`, for which the inhibition in experiment [1] worked out at 6%; in experiment [2], 36%; in experiment [3], 12%; in experiment [4] it was 17%; in [5], 43%; in experiment [6], 14%. The inhibition in experiment [7] was 12%; in [8] it was -1%; in experiment [9] it was 4%; in experiment [10], 6%; in experiment [11] it was 41%; in experiment [16] it was 74%. For the same compound, the inhibition in experiment [12] was 81%; in [13], -3%; in [14], 84%; in experiment [15] it was 11%. Also, the IC50 in the experiment on PBMC is > 10 µM.
